Assay [1] concerns MIA PaCa-2 (KRAS G12C) cells. In words: Cellular pERK HTRF assay (KRAS_G12C pERK). As to conditions: Homo sapiens, MIA PaCa-2, 4 hours incubation, read-out: G12C_pERK. The class given is cell-based, human. The gist of the method:
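MIA PaCa-2 cells plated overnight, then exposed to compound for 4 h at 37 °C (G12C compounds). Phospho-ERK1/2 measured in lysates by HTRF (665/620 nm) after overnight antibody incubation; IC50 from percent inhibition versus log concentration.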
In general terms: In TR-FRET formats the signal depends on donor and acceptor labels being close together.

In assay [2] the target is KRAS G12C (Homo sapiens, UniProt P01116, G12C). In words: GDP-GTP exchange assay (KRAS_G12C exchange). It is filed as biochemical. Conditions: bodipy-GDP loaded KRAS G12C 2.5 nM, SOS1 150 nM, GppNHp; 2 hours pre-incubation, 2 hours reaction; read-out: G12C_exchange. The gist of the method: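 Fluorescence exchange of bodipy-GDP for GppNHp, SOS1-driven, read at 485/520 nm; IC50 from four-parameter variable-slope fit. Both mutants used 2.5 nM final labelled protein and a 2 h compound pre-incubation. G12C reaction had 500 uM GppNHp and 150 nM SOS1 for 2 h; G12D ran 4 h.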
KRAS G12C, sequence (P01116 1-188 isoform P01116-2 G12C): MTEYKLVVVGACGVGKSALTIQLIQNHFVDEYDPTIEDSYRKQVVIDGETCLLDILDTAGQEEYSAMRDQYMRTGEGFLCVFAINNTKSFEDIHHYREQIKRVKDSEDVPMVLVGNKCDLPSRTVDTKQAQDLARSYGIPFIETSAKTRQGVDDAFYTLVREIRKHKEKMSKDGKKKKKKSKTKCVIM

With `Cc1cc2c(nc(N3CC(C)(N(C)C)C3)c3nnn([C@H]4CCN(C(=O)/C=C/C(F)F)[C@H](CC#N)C4)c32)c(F)c1-c1cccc(Cl)c1C` [Example 102, 2-((2S,4S)-4-(7-(3-chloro-2-methylphenyl)-4-(3-(dimethylamino)-3-methylazetidin-1-yl)-6-fluoro-8-methyl-1H-[1,2,3]triazolo-[4,5-c]quinolin-1-yl)-1-((E)-4,4-difluorobut-2-enoyl)-piperidin-2-yl)acetonitrile], the IC50 in assay [1] and in assay [2] was not above 100 nM each time.

As to `CC#CC(=O)N1CC[C@H](n2nnc3c(N4CC(C)(N(C)C)C4)nc4c(F)c(-c5cccc(Cl)c5C)c(C)cc4c32)C[C@H]1CC#N` [Example 103, 2-((2S,4S)-1-(but-2-ynoyl)-4-(7-(3-chloro-2-methyl-phenyl)-4-(3-(dimethyl-amino)-3-methylazetidin-1-yl)-6-fluoro-8-methyl-1H-[1,2,3]triazolo[4,5-c]quinolin-1-yl)piperidin-2-yl)acetonitrile], the IC50 in assay [1] and in assay [2] was not above 100 nM in each case.

Turning to `Cc1cc2c(nc(N3CC(C)(N(C)C)C3)c3nnn([C@H]4CCN(C(=O)/C=C/CF)[C@H](CC#N)C4)c32)c(F)c1-c1cccc(Cl)c1C` [Example 104, 2-((2S,4S)-4-(7-(3-chloro-2-methylphenyl)-4-(3-(dimethylamino)-3-methyl-azetidin-1-yl)-6-fluoro-8-methyl-1H-[1,2,3]triazolo[4,5-c]quinolin-1-yl)-1-((E)-4-fluorobut-2-enoyl)piperidin-2-yl)acetonitrile], the IC50 in assay [1] and in assay [2] was not above 100 nM in each case.

As for `Cc1cc2c(nc(N3CC(C)(N(C)C)C3)c3nnn([C@H]4CCN(C(=O)/C=C/CN(C)C)[C@H](CC#N)C4)c32)c(F)c1-c1cccc(Cl)c1C` [Example 105, 2-((2S,4S)-4-(7-(3-chloro-2-methylphenyl)-4-(3-(dimethylamino)-3-methylazetidin-1-yl)-6-fluoro-8-methyl-1H-[1,2,3]triazolo[4,5-c]quinolin-1-yl)-1-((E)-4-(dimethylamino)but-2-enoyl)piperidin-2-yl)acetonitrile], the IC50 in assay [1] and in assay [2] was not above 100 nM throughout.

Consider `C=CC(=O)N1CC[C@H](n2cnc3c(N4CC(N(C)C)C4)nc4c(F)c(-c5ccccc5C(F)(F)F)c(Cl)cc4c32)C[C@H]1CC#N` [Example 106, 2-((2S,4S)-1-acryloyl-4-(8-chloro-4-(3-(dimethylamino)azetidin-1-yl)-6-fluoro-7-(2-(trifluoromethyl)phenyl)-1H-imidazo[4,5-c]quinolin-1-yl)piperidin-2-yl)acetonitrile], for which the IC50 in assay [1] and in assay [2] was not above 100 nM each time.

Turning to `C=CC(=O)N1CC[C@H](n2cnc3c(N4CC(N(C)C)C4)nc4c(F)c(-c5cccc(Cl)c5Cl)c(Cl)cc4c32)C[C@H]1CC#N` [Example 107, 2-((2S,4S)-1-acryloyl-4-(8-chloro-7-(2,3-dichlorophenyl)-4-(3-(dimethylamino)azetidin-1-yl)-6-fluoro-1H-imidazo[4,5-c]quinolin-1-yl)piperidin-2-yl)acetonitrile], the IC50 in assay [1] and in assay [2] was not above 100 nM throughout.

Turning to `C=CC(=O)N1CC[C@H](n2cnc3c(N4CC(N(C)C)C4)nc4c(F)c(-c5cnccc5C)c(Cl)cc4c32)C[C@H]1CC#N` [Example 108, 2-((2S,4S)-1-acryloyl-4-(8-chloro-4-(3-(dimethylamino)azetidin-1-yl)-6-fluoro-7-(4-methylpyridin-3-yl)-1H-imidazo[4,5-c]quinolin-1-yl)piperidin-2-yl)acetonitrile], the IC50 in assay [1] and in assay [2] was not above 100 nM throughout.

As to `C=CC(=O)N1CC[C@H](n2cnc3c(N4CC(N(C)C)C4)nc4c(F)c(-c5cccc(C)c5)c(Cl)cc4c32)C[C@H]1CC#N` [Example 109, 2-((2S,4S)-1-acryloyl-4-(8-chloro-4-(3-(dimethylamino)-azetidin-1-yl)-6-fluoro-7-(m-tolyl)-1H-imidazo[4,5-c]quinolin-1-yl)piperidin-2-yl)acetonitrile], the IC50 in assay [1] and in assay [2] was not above 100 nM throughout.

In the case of `C=CC(=O)N1CC[C@H](n2cnc3c(N4CC(N(C)C)C4)nc4c(F)c(-c5cncc(C)c5C)c(Cl)cc4c32)C[C@H]1CC#N` [Example 110a, 2-((2S,4S)-1-acryloyl-4-(8-chloro-4-(3-(dimethylamino)-azetidin-1-yl)-7-(4,5-dimethylpyridin-3-yl)-6-fluoro-1H-imidazo[4,5-c]quinolin-1-yl)piperidin-2-yl)acetonitrile], the IC50 in assay [1] and in assay [2] was not above 100 nM in each case.

As to `C=CC(=O)N1CC[C@H](n2nnc3c(N4CC(N(C)C)C4)nc4c(F)c(-c5cccc(C)c5C)c(Cl)cc4c32)C[C@H]1CC#N` [Example 111, 2-((2S,4S)-1-acryloyl-4-(8-chloro-4-(3-(dimethylamino)azetidin-1-yl)-7-(2,3-dimethylphenyl)-6-fluoro-1H-[1,2,3]triazolo[4,5-c]quinolin-1-yl)piperidin-2-yl)acetonitrile], the IC50 in assay [1] and in assay [2] was not above 100 nM in each case.

`C=CC(=O)N1CC[C@H](n2nnc3c(N4CC(N(C)C)C4)nc4c(F)c(-c5cccc(Cl)c5C)c(Cl)cc4c32)C[C@H]1CC#N` [Example 112, 2-((2S,4S)-1-acryloyl-4-(8-chloro-7-(3-chloro-2-methylphenyl)-4-(3-(dimethylamino)azetidin-1-yl)-6-fluoro-1H-[1,2,3]triazolo[4,5-c]quinolin-1-yl)piperidin-2-yl)acetonitrile]: the IC50 in assay [1] and in assay [2] was not above 100 nM throughout.

With `C=CC(=O)N1CC[C@H](n2nnc3c(N4CC(N(C)C)C4)nc4c(F)c(-c5cccc(Cl)c5Cl)c(Cl)cc4c32)C[C@H]1CC#N` [Example 113, 2-((2S,4S)-1-acryloyl-4-(8-chloro-7-(2,3-dichlorophenyl)-4-(3-(dimethylamino)azetidin-1-yl)-6-fluoro-1H-[1,2,3]triazolo[4,5-c]quinolin-1-yl)piperidin-2-yl)acetonitrile], the IC50 in assay [1] and in assay [2] was not above 100 nM throughout.

In the case of `C=CC(=O)N1CC[C@H](n2nnc3c(N4CC(N(C)C)C4)nc4c(F)c(-c5cccc(C)c5)c(Cl)cc4c32)C[C@H]1CC#N` [Example 114, 2-((2S,4S)-1-acryloyl-4-(8-chloro-4-(3-(dimethylamino)azetidin-1-yl)-6-fluoro-7-(m-tolyl)-1H-[1,2,3]triazolo[4,5-c]quinolin-1-yl)piperidin-2-yl)acetonitrile], the IC50 in assay [1] and in assay [2] was not above 100 nM in each case.

On to `C=CC(=O)N1CC[C@H](n2nnc3c(N4CC(N(C)C)C4)nc4c(F)c(-c5cccc(C#N)c5C)c(Cl)cc4c32)C[C@H]1CC#N` [Example 115, 3-(1-((2S,4S)-1-acryloyl-2-(cyanomethyl)piperidin-4-yl)-8-chloro-4-(3-(dimethylamino)azetidin-1-yl)-6-fluoro-1H-[1,2,3]triazolo[4,5-c]quinolin-7-yl)-2-methylbenzonitrile], for which the IC50 in assay [1] and in assay [2] was not above 100 nM each time.

As to `C=CC(=O)N1CC[C@H](n2nnc3c(N4CC(N(C)C)C4)nc4c(F)c(-c5ccc(F)c(C)c5C)c(Cl)cc4c32)C[C@H]1CC#N` [Example 116, 2-((2S,4S)-1-acryloyl-4-(8-chloro-4-(3-(dimethylamino)azetidin-1-yl)-6-fluoro-7-(4-fluoro-2,3-dimethylphenyl)-1H-[1,2,3]triazolo[4,5-c]quinolin-1-yl)piperidin-2-yl)acetonitrile], the IC50 in assay [1] and in assay [2] was not above 100 nM throughout.

On to `C=CC(=O)N1CC[C@H](n2nnc3c(N4CC(N(C)C)C4)nc4c(F)c(-c5ccccc5C5CC5)c(Cl)cc4c32)C[C@H]1CC#N` [Example 117, 2-((2S,4S)-1-acryloyl-4-(8-chloro-7-(2-cyclopropylphenyl)-4-(3-(dimethylamino)azetidin-1-yl)-6-fluoro-1H-[1,2,3]triazolo[4,5-c]quinolin-1-yl)piperidin-2-yl)acetonitrile], for which the IC50 in assay [1] and in assay [2] was not above 100 nM each time.

`C=CC(=O)N1CC[C@H](n2cnc3c(N4CC(C)(N(C)C)C4)nc4c(F)c(-c5ccc(F)cc5)c(Cl)cc4c32)C[C@H]1CC#N` [Example 120, 2-((2S,4S)-1-acryloyl-4-(8-chloro-4-(3-(dimethylamino)-3-methylazetidin-1-yl)-6-fluoro-7-(4-fluorophenyl)-1H-imidazo[4,5-c]quinolin-1-yl)piperidin-2-yl)acetonitrile]: the IC50 in assay [1] and in assay [2] was not above 100 nM in each case.

Turning to `C=CC(=O)N1CC[C@H](n2cnc3c(N4CC(C)(N(C)C)C4)nc4c(F)c(-c5ccc(F)cc5)c(C)cc4c32)C[C@H]1CC#N` [Example 121, 2-((2S,4S)-1-acryloyl-4-(4-(3-(dimethylamino)-3-methylazetidin-1-yl)-6-fluoro-7-(4-fluorophenyl)-8-methyl-1H-imidazo[4,5-c]quinolin-1-yl)piperidin-2-yl)acetonitrile], the IC50 in assay [1] and in assay [2] was not above 100 nM each time.

In the case of `C=CC(=O)N1CC[C@H](n2cnc3c(O[C@@H](C)CN(C)C)nc4c(F)c(-c5ccc(F)cc5)c(Cl)cc4c32)C[C@H]1CC#N` [Example 122, 2-((2S,4S)-1-acryloyl-4-(8-chloro-4-(((S)-1-(dimethyl-amino)propan-2-yl)oxy)-6-fluoro-7-(4-fluorophenyl)-1H-imidazo[4,5-c]quinolin-1-yl)piperidin-2-yl)acetonitrile], the IC50 in assay [1] and in assay [2] was not above 100 nM throughout.

(Values after patent US20210269434A1, “TRICYCLIC COMPOUNDS AS INHIBITORS OF KRAS” (Incyte Corporation, priority 2020, published 2021).)
